Measured values from ChEMBL document CHEMBL5537123, “Discovery of triazole tethered thymol/carvacrol-coumarin hybrids as new class of α-glucosidase inhibitors with potent in vivo antihyperglycemic activities” (Eur J Med Chem, 2024).
Active and inactive are the calls of the source. No cut-off for these calls is given here.

Columns and labels:
[1] = tested on: Origanum vulgare; test: Inhibition of Origanum vulgare alpha-glucosidase at 18 microg/ml relative to control; conditions: dose 18.0 µg/ml
[2] = Inhibition of alpha-glucosidase (unknown origin); design: species or system Homo sapiens
[3] = target: T1, Alpha-glucosidase (Saccharomyces cerevisiae S288c, UniProt P53341+P38158+P07265); test: Inhibition of Saccharomyces cerevisiae alpha-glucosidase using pNPG as substrate preincubated with compound for 20 mins followed by substrate addition measured after 1 hrs by absorbance based analysis; assay type: protein assay
[4] = target: T2, Alpha-amylase (Sus scrofa domesticus, UniProt Q7M328); test: Inhibition of porcine pancreatic alpha-amylase using pNPG as substrate preincubated with compound for 20 mins followed by substrate addition measured after 1 hrs by absorbance based analysis
T2 sequence (Q7M328 whole entry): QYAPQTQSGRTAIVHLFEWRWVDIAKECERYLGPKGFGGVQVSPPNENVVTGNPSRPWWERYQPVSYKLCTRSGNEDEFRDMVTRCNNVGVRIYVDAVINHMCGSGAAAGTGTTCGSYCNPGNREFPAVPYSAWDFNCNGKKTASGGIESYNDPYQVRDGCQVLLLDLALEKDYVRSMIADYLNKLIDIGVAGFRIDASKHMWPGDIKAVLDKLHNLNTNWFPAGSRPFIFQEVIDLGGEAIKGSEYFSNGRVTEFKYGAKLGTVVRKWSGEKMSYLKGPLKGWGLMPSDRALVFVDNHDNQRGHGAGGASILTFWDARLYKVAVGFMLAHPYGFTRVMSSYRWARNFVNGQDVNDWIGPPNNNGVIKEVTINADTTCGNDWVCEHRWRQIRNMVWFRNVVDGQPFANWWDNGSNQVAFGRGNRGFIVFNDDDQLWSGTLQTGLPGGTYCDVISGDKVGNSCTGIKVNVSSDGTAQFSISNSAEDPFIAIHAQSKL

[5] = tested on: Rattus norvegicus; test: Hypoglycemic activity in streptozotocin-induced diabetic Wistar rat model assessed as decrease in blood glucose level at 10 mg/kg, po administered for 5 days and measured after 1 hr by sucrose loading test relative to control; assay type: functional; design: scale not given: the % may be the effect or the level left; conditions: time 121 hrs
[6] = tested on: Rattus norvegicus; test: Hypoglycemic activity in streptozotocin-induced diabetic Wistar rat model assessed as decrease in blood glucose level at 10 mg/kg, po administered for 5 days and measured after 1 hr by maltose loading test relative to control; assay type: functional; design: scale not given: the % may be the effect or the level left; conditions: time 121 hrs
[7] = tested on: Rattus norvegicus; test: Hypoglycemic activity in streptozotocin-induced diabetic Wistar rat model assessed as reduction in fasting blood glucose level at 10 mg/kg, po measured every 7 days for 28 days relative to control; assay type: functional; design: scale not given: the % may be the effect or the level left; conditions: time 7 day
[8] = Selectivity index, ratio of IC50 for inhibition of porcine pancreatic alpha-amylase using pNPG as substrate to IC50 for inhibition of Saccharomyces cerevisiae alpha-glucosidase using pNPG as substrate
[9] = Cytotoxicity against mouse L929 cells assessed reduction in cell viability incubated for 24 hrs by MTT assay; assay type: toxicity, cell-based
[10] = Acute toxicity in Wistar rat assessed as change in salivation at 50 mg/kg, po measured for 14 days; assay type: organism-based; conditions: in vivo, 336 h, time 14 day
[11] = Acute toxicity in Wistar rat assessed as lethal dose measured for 14 days; conditions: in vivo, time 14 day
[12] = Toxicity in Wistar rat assessed as effect on body weight at 20 mg/kg, po measured for 28 days; assay type: organism-based; conditions: in vivo, 672 h, time 28 day
[13] = tested on: Rattus norvegicus; test: Hypoglycemic activity in streptozotocin-induced diabetic Wistar rat model assessed as decrease in blood glucose level at 20 mg/kg, po administered for 5 days and measured after 1 hr by sucrose loading test relative to control; assay type: functional; design: scale not given: the % may be the effect or the level left; conditions: time 121 hrs
[14] = tested on: Rattus norvegicus; test: Hypoglycemic activity in streptozotocin-induced diabetic Wistar rat model assessed as decrease in blood glucose level at 5 to 20 mg/kg, po administered for 5 days and measured after 30 mins by glucometer analysis; assay type: functional, organism-based; conditions: dose 5-20 mg/kg, time 7230.0 min
[15] = Acute toxicity in Wistar rat assessed as mortality rate at 300 mg/kg, po measured for 14 days; assay type: organism-based; conditions: in vivo, time 14 day, read-out: Activity
[16] = Acute toxicity in Wistar rat assessed as change in salivation at 5 mg/kg, po measured for 14 days; assay type: organism-based; conditions: in vivo, 336 h, time 14 day
[17] = tested on: Rattus norvegicus; test: Hypoglycemic activity in streptozotocin-induced diabetic Wistar rat model assessed as reduction in fasting blood glucose level at 20 mg/kg, po measured every 7 days for 28 days relative to control; assay type: functional; design: scale not given: the % may be the effect or the level left; conditions: time 7 day
[18] = tested on: Rattus norvegicus; test: Hypoglycemic activity in streptozotocin-induced diabetic Wistar rat model assessed as decrease in blood glucose level at 20 mg/kg, po administered for 5 days and measured after 1 hr by maltose loading test relative to control; assay type: functional; design: scale not given: the % may be the effect or the level left; conditions: time 121 hrs
[19] = Acute toxicity in Wistar rat assessed as change in salivation at 300 mg/kg, po measured for 14 days; assay type: organism-based; conditions: in vivo, 336 h, time 14 day
[20] = target: T1, Alpha-glucosidase; test: Mixed type inhibition of Saccharomyces cerevisiae alpha-glucosidase using pNPG as substrate assessed as inhibition constant preincubated for 20 mins followed by substrate addition measured after 1 hrs by Lineweaver-burk plot analysis; assay type: protein assay
[21] = tested on: Rattus norvegicus; test: Hypoglycemic activity in streptozotocin-induced diabetic Wistar rat model assessed as decrease in blood glucose level at 5 mg/kg, po administered for 5 days and measured after 1 hr by sucrose loading test relative to control; assay type: functional; design: scale not given: the % may be the effect or the level left; conditions: time 121 hrs
[22] = tested on: Rattus norvegicus; test: Hypoglycemic activity in streptozotocin-induced diabetic Wistar rat model assessed as decrease in blood glucose level at 5 mg/kg, po administered for 5 days and measured after 1 hr by maltose loading test relative to control; assay type: functional; design: scale not given: the % may be the effect or the level left; conditions: time 121 hrs

Structure (SMILES) | IC50 [3] | IC50 [4] | further results
Cc1ccc(C(C)C)c(OS(=O)(=O)c2ccc(F)cc2)c1 |  |  | inhibition [1]: 57.7%; IC50 [2]: 2.3 µM
Cc1ccc(C(C)C)cc1OCc1cn(CCOc2ccc3ccc(=O)oc3c2)nn1 | 64.21 µM | > 100 µM | 
Cc1ccc(C(C)C)cc1OCc1cn(CCCOc2ccc3ccc(=O)oc3c2)nn1 | > 100 µM | > 100 µM | 
Cc1ccc(C(C)C)cc1OCc1cn(CCCCOc2cc(=O)oc3ccccc23)nn1 | 26.48 µM | > 100 µM | 
O=C(Cn1cc(COc2ccc3ccc(=O)oc3c2)nn1)NCc1cccc(Br)c1 |  |  | IC50 [2]: 0.543 µM
C[C@H]1O[C@H](O[C@H]2[C@H](O)[C@@H](O)[C@@H](O[C@H]3[C@H](O)[C@@H](O)C(O)O[C@@H]3CO)O[C@@H]2CO)[C@H](O)[C@@H](O)[C@@H]1N[C@H]1C=C(CO)[C@@H](O)[C@H](O)[C@H]1O (some centres not stated) [ACARBOSE] |  |  | Activity [5]: 56.31%; Activity [6]: 53.01%; Activity [7]: 25.86%
Cc1ccc(C(C)C)cc1OCc1cn(CCCCCCOc2ccc3ccc(=O)oc3c2)nn1 | > 100 µM | > 100 µM | 
Cc1ccc(C(C)C)cc1OCc1cn(CCOc2cc(=O)oc3ccccc23)nn1 | 78.69 µM | > 100 µM | 
Cc1ccc(C(C)C)c(OCc2cn(CCCOc3cc(=O)oc4ccccc34)nn2)c1 | 37.59 µM | > 100 µM | 
Cc1ccc(C(C)C)cc1OS(=O)(=O)c1ccc(F)cc1 |  |  | inhibition [1]: 57.7%; IC50 [2]: 2.56 µM
Cc1ccc(C(C)C)c(OCc2cn(CCCCCOc3ccc4ccc(=O)oc4c3)nn2)c1 | > 100 µM | > 100 µM | 
Cc1ccc(C(C)C)cc1OCc1cn(CCCOc2cc(=O)oc3ccccc23)nn1 | 68.51 µM | > 100 µM | 
Cc1ccc(C(C)C)c(OCc2cn(CCCOc3ccc4ccc(=O)oc4c3)nn2)c1 | 72.91 µM | > 100 µM | 
Cc1ccc(C(C)C)c(OCc2cn(CCOc3ccc4ccc(=O)oc4c3)nn2)c1 | 56.41 µM | > 100 µM | 
Cc1ccc(C(C)C)cc1OCc1cn(CCCCCOc2cc(=O)oc3ccccc23)nn1 | 4.32 µM | 37.4 µM | Activity [10]: Non-Toxic; LD50 at 336 h [11]: 300 mg/kg; Activity [12]: Non-Toxic; Activity [13]: 60.23%; Activity [14]: Active; mortality at 336 h [15]: 67%; Activity [16]: Non-Toxic; Activity [17]: 62.23%; Activity [18]: 70.12%; Ratio IC50 [8]: 8.65; Activity [19]: Non-Toxic; Ki [20]: 0.832 µM; Activity [5]: 59.65%; Activity [21]: 25.24%; Activity [6]: 62.65%; IC50 at 24 h [9]: > 100 µM; Activity [7]: 54.69%; Activity [22]: 28.91%
Cc1ccc(C(C)C)c(OCc2cn(CCOc3cc(=O)oc4ccccc34)nn2)c1 | 61.24 µM | > 100 µM | 
Cc1ccc(CNC(=O)Cn2cc(COc3cc(=O)oc4ccccc34)nn2)cc1 |  |  | IC50 [2]: 3.5 µM

More lines, main results first:

IC50 [3] | IC50 [4] | Structure (SMILES) | further results
9.23 µM | 69.3 µM | Cc1ccc(C(C)C)cc1OCc1cn(CCCCCCOc2cc(=O)oc3ccccc23)nn1 | Ratio IC50 [8]: 7.51; IC50 at 24 h [9]: > 100 µM
25.36 µM | 77.5 µM | Cc1ccc(C(C)C)c(OCc2cn(CCCCOc3cc(=O)oc4ccccc34)nn2)c1 | Ratio IC50 [8]: 3.06
> 100 µM | > 100 µM | Cc1ccc(C(C)C)cc1OCc1cn(CCCCCOc2ccc3ccc(=O)oc3c2)nn1 | 
> 100 µM | > 100 µM | Cc1ccc(C(C)C)c(OCc2cn(CCCCOc3ccc4ccc(=O)oc4c3)nn2)c1 | 
> 100 µM | > 100 µM | Cc1ccc(C(C)C)cc1OCc1cn(CCCCOc2ccc3ccc(=O)oc3c2)nn1 | 
7.53 µM | 57.3 µM | Cc1ccc(C(C)C)c(OCc2cn(CCCCCOc3cc(=O)oc4ccccc34)nn2)c1 | Ratio IC50 [8]: 7.61; IC50 at 24 h [9]: > 100 µM
> 100 µM | > 100 µM | Cc1ccc(C(C)C)c(OCc2cn(CCCCCCOc3ccc4ccc(=O)oc4c3)nn2)c1 | 
16.32 µM | > 100 µM | Cc1ccc(C(C)C)c(OCc2cn(CCCCCCOc3cc(=O)oc4ccccc34)nn2)c1 | 
